Experiments:
[1] = tested on: JAK1-dependent STAT6 phosphorylation downstream of IL-13 stimulation in TF-1 human erythroleukemia cells; experiment: cells; conditions: TF-1, read-out: IL-13-pSTAT6 IC50
Method: (§1) Inhibitor potency (EC50) was determined in cell-based assays designed to measure JAK1 dependent STAT phosphorylation.
(§2) Prior to use in the assays, TF-1 cells were starved of GM-CSF overnight in OptiMEM medium (Life Technologies, Grand Island, N.Y.) supplemented with 0.5% charcoal/dextran stripped fetal bovine serum (FBS), 0.1 mM non-essential amino acids (NEAA), and 1 mM sodium pyruvate. The assays were run in 384-well plates in serum-free OptiMEM medium using 300,000 cells per well. In a second assay approach, BEAS-2B human bronchial epithelial cells obtained from ATCC were plated at 100,000 cells per well of a 96-well plate one day prior to the experiment. The BEAS-2B assay was run in complete growth medium (bronchial epithelial basal medium plus bulletkit; Lonza; Basel, Switzerland).
(§3) Test compounds were serially diluted 1:2 in DMSO and then diluted 1:50 in medium just before use. Diluted compounds were added to the cells, for a final DMSO concentration of 0.2%, and incubated for 30 min (for the TF-1 assay) or 1 hr (for the BEAS-2B assay) at 37° C. Then, cells were stimulated with human recombinant cytokine at their respective EC90 concentrations, as previously determined for each individual lot. […] The resultant samples were frozen in the plates at −80° C. Compound mediated inhibition of STAT6 phosphorylation was measured in the cell lysates using MesoScale Discovery (MSD) technology (Gaithersburg, Md.).

[2] = tested on: JAK1-dependent STAT6 phosphorylation downstream of IL-13 stimulation in BEAS-2B human bronchial epithelial cells; experiment: cells; conditions: read-out: IL13-pSTAT6 BEASB2B IC50
Method: as §1, §2, §3

Row | Structure (SMILES) | IC50 [1] [nM] | IC50 [2] [nM]
1 | CC(C)(CNC(=O)c1ccc(Nc2nc3c(C4=CCN(C(=O)CCC(F)(F)F)CC4)cccn3n2)cc1)N1CCOCC1 [Example 2-213, N-(2-methyl-2-morpholino-propyl)-4-[[8-[1-(4,4,4-trifluorobutanoyl)-3,6-dihydro-2H-pyridin-4-yl]-[1,2,4]triazolo[1,5-a]pyridin-2-yl]amino]benzamide] | 5.6 | 20.6
2 | CC1CN(CCNC(=O)c2ccc(Nc3nc4c(C5=CCN(C(=O)CCC(F)(F)F)CC5)cccn4n3)cc2)CC(C)O1 (stereo not drawn) [Example 2-268, N-[2-(2,6-dimethylmorpholin-4-yl)ethyl]-4-[[8-[1-(4,4,4-trifluorobutanoyl)-3,6-dihydro-2H-pyridin-4-yl]-[1,2,4]triazolo[1,5-a]pyridin-2-yl]amino]benzamide] | 3 | 26.6
3 | CN(C)c1cc(CC2CCN(C(=O)c3ccc(Nc4nc5c(N6CCC(O)(c7ccc(Cl)cc7)CC6)cccn5n4)cc3)C2)ncn1 (stereo not drawn) [Example 1-151, [4-[[8-[4-(4-chlorophenyl)-4-hydroxy-1-piperidyl]-[1,2,4]triazolo[1,5-a]pyridin-2-yl]amino]phenyl]-[3-[[6-(dimethylamino)pyrimidin-4-yl]methyl]pyrrolidin-1-yl]methanone] | 107 | 167
4 | O=C(CCC(F)(F)F)N1CC=C(c2cccn3nc(Nc4ccc(C(=O)N5CCOC(c6ccccn6)C5)cc4)nc23)CC1 (stereo not drawn) [Example 2-154, 4,4,4-trifluoro-1-[4-[2-[4-[2-(2-pyridyl)morpholine-4-carbonyl]anilino]-[1,2,4]triazolo[1,5-a]pyridin-8-yl]-3,6-dihydro-2H-pyridin-1-yl]butan-1-one] | 4.5 | 80.6
5 | CN1CCC2CN(C(=O)c3ccc(Nc4nc5c(N6CCC(CO)(c7ccc(Cl)cc7)CC6)cccn5n4)cc3)CC21 (stereo not drawn) [Example 1-275, [4-[[8-[4-(4-chlorophenyl)-4-(hydroxymethyl)-1-piperidyl]-[1,2,4]triazolo[1,5-a]pyridin-2-yl]amino]phenyl]-(1-methyl-2,3,3a,4,6,6a-hexahydropyrrolo[2,3-c]pyrrol-5-yl)methanone] | 3 | 55.5
6 | O=C(NC1CCN(C2CCCC2)CC1)c1ccc(Nc2nc3c(N4CCC(CO)(c5ccc(Cl)cc5)CC4)cccn3n2)cc1 [Example 1-280, 4-[[8-[4-(4-chlorophenyl)-4-(hydroxymethyl)-1-piperidyl]-[1,2,4]triazolo[1,5-a]pyridin-2-yl]amino]-N-(1-cyclopentyl-4-piperidyl)benzamide] | 124 | 52.8
7 | CC(C)(CNC(=O)c1ccc(Nc2nc3c(N4CCC(CO)(c5ccc(Cl)cc5)CC4)cccn3n2)cc1)N1CCOCC1 [Example 1-285, 4-[[8-[4-(4-chlorophenyl)-4-(hydroxymethyl)-1-piperidyl]-[1,2,4]triazolo[1,5-a]pyridin-2-yl]amino]-N-(2-methyl-2-morpholino-propyl)benzamide] | 22.1 | 57.6
8 | CCN(Cc1ccncc1)C(=O)c1ccc(Nc2nc3c(C4=CCN(C(=O)CCC(F)(F)F)CC4)cccn3n2)cc1 [Example 2-219, N-ethyl-N-(4-pyridylmethyl)-4-[[8-[1-(4,4,4-trifluorobutanoyl)-3,6-dihydro-2H-pyridin-4-yl]-[1,2,4]triazolo[1,5-a]pyridin-2-yl]amino]benzamide] | 3.3 | 37.2
9 | O=C(NCCCN1CCOCC1)c1ccc(Nc2nc3c(C4=CCN(C(=O)CCC(F)(F)F)CC4)cccn3n2)cc1 [Example 2-271, N-(3-morpholinopropyl)-4-[[8-[1-(4,4,4-trifluorobutanoyl)-3,6-dihydro-2H-pyridin-4-yl]-[1,2,4]triazolo[1,5-a]pyridin-2-yl]amino]benzamide] | 5.3 | 15.9
10 | O=C(c1ccc(Nc2nc3c(N4CCC(CO)(c5ccc(Cl)cc5)CC4)cccn3n2)cc1)N1CCCC1c1ccncc1 (stereo not drawn) [Example 1-288, [4-[[8-[4-(4-chlorophenyl)-4-(hydroxymethyl)-1-piperidyl]-[1,2,4]triazolo[1,5-a]pyridin-2-yl]amino]phenyl]-[2-(4-pyridyl)pyrrolidin-1-yl]methanone] | 28 | 67.7
11 | O=C(CCC(F)(F)F)N1CC=C(c2cccn3nc(Nc4ccc(C(=O)N5CCC(N6CCOCC6)CC5)cc4)nc23)CC1 [Example 2-210, 4,4,4-trifluoro-1-[4-[2-[4-(4-morpholinopiperidine-1-carbonyl)anilino]-[1,2,4]triazolo[1,5-a]pyridin-8-yl]-3,6-dihydro-2H-pyridin-1-yl]butan-1-one] | 6.9 | 45.6
12 | O=C(CCC(F)(F)F)N1CC=C(c2cccn3nc(Nc4ccc(C(=O)N5CCC(c6ccncc6)C5)cc4)nc23)CC1 (stereo not drawn) [Example 2-338, 4,4,4-trifluoro-1-[4-[2-[4-[3-(4-pyridyl)pyrrolidine-1-carbonyl]anilino]-[1,2,4]triazolo[1,5-a]pyridin-8-yl]-3,6-dihydro-2H-pyridin-1-yl]butan-1-one] | 3.3 | 23.4
13 | O=C(NC1CCN(C2CCCC2)CC1)c1ccc(Nc2nc3c(C4=CCN(C(=O)CCC(F)(F)F)CC4)cccn3n2)cc1 [Example 2-49, N-(1-cyclopentyl-4-piperidyl)-4-[[8-[1-(4,4,4-trifluorobutanoyl)-3,6-dihydro-2H-pyridin-4-yl]-[1,2,4]triazolo[1,5-a]pyridin-2-yl]amino]benzamide] | 3.8 | 10.2
14 | O=C(NCCCN1CCOCC1)c1ccc(Nc2nc3c(N4CCC(O)(c5ccc(Cl)cc5)CC4)cccn3n2)cc1 [Example 1-98, 4-[[8-[4-(4-chlorophenyl)-4-hydroxy-1-piperidyl]-[1,2,4]triazolo[1,5-a]pyridin-2-yl]amino]-N-(3-morpholinopropyl) benzamide] | 11.9 | 42.4
15 | CN1CCC(N(C)C(=O)c2ccc(Nc3nc4c(C5=CCN(C(=O)CCC(F)(F)F)CC5)cccn4n3)cc2)CC1 [Example 2-288, N-methyl-N-(1-methyl-4-piperidyl)-4-[[8-[1-(4,4,4-trifluorobutanoyl)-3,6-dihydro-2H-pyridin-4-yl]-[1,2,4]triazolo[1,5-a]pyridin-2-yl]amino]benzamide] | 12.7 | 77.7
16 | COCC1(c2ccc(Cl)cc2)CCN(c2cccn3nc(Nc4ccc(C(=O)N(C)C5CCN(C)CC5)cc4)nc23)CC1 [Example 1-258, 4-[[8-[4-(4-chlorophenyl)-4-(methoxymethyl)-1-piperidyl]-[1,2,4]triazolo[1,5-a]pyridin-2-yl]amino]-N-methyl-N-(1-methyl-4-piperidyl)benzamide; formic acid] | 93.4 | 1440
17 | C[C@@H]1CN(CCNC(=O)c2ccc(Nc3nc4c(N5CCC(CO)(c6ccc(Cl)cc6)CC5)cccn4n3)cc2)C[C@H](C)O1 [Example 1-278, 4-[[8-[4-(4-chlorophenyl)-4-(hydroxymethyl)-1-piperidyl]-[1,2,4]triazolo[1,5-a]pyridin-2-yl]amino]-N-[2-[(2R,6S)-2,6-dimethylmorpholin-4-yl]ethyl]benzamide] | 16.3 | 37.6
18 | CCN(Cc1ccncc1)C(=O)c1ccc(Nc2nc3c(N4CCC(CO)(c5ccc(Cl)cc5)CC4)cccn3n2)cc1 [Example 1-287, 4-[[8-[4-(4-chlorophenyl)-4-(hydroxymethyl)-1-piperidyl]-[1,2,4]triazolo[1,5-a]pyridin-2-yl]amino]-N-ethyl-N-(4-pyridylmethyl)benzamide] | 22.5 | 36.4
19 | O=C(c1ccc(Nc2nc3c(N4CCC(CO)(c5ccc(Cl)cc5)CC4)cccn3n2)cc1)N1CCC(c2ccccn2)CC1 [Example 1-276, [4-[[8-[4-(4-chlorophenyl)-4-(hydroxymethyl)-1-piperidyl]-[1,2,4]triazolo[1,5-a]pyridin-2-yl]amino]phenyl]-[4-(2-pyridyl)-1-piperidyl]methanone] | 95.7 | 82
20 | C[C@@H]1CN(C2CCN(C(=O)c3ccc(Nc4nc5c(N6CCC(CO)(c7ccc(Cl)cc7)CC6)cccn5n4)cc3)CC2)C[C@H](C)O1 [Example 1-282, [4-[[8-[4-(4-chlorophenyl)-4-(hydroxymethyl)-1-piperidyl]-[1,2,4]triazolo[1,5-a]pyridin-2-yl]amino]phenyl]-[4-[(2R,6S)-2,6-dimethylmorpholin-4-yl]-1-piperidyl]methanone] | 42.6 | 55.6
21 | C[C@H]1CN(C2CCN(C(=O)c3ccc(Nc4nc5c(N6CCC(CO)(c7ccc(Cl)cc7)CC6)cccn5n4)cc3)CC2)C[C@H](C)O1 [Example 1-281, [4-[[8-[4-(4-chlorophenyl)-4-(hydroxymethyl)-1-piperidyl]-[1,2,4]triazolo[1,5-a]pyridin-2-yl]amino]phenyl]-[4-[(2S,6S)-2,6-dimethylmorpholin-4-yl]-1-piperidyl]methanone] | 70.2 | 134
22 | CN1CCCC1CCNC(=O)c1ccc(Nc2nc3c(N4CCC(O)(c5ccc(Cl)cc5)CC4)cccn3n2)cc1 (stereo not drawn) [Example 1-102, 4-[[8-[4-(4-chlorophenyl)-4-hydroxy-1-piperidyl]-[1,2,4]triazolo[1,5-a]pyridin-2-yl]amino]-N-[2-(1-methylpyrrolidin-2-yl)ethyl]benzamide] | 45 | 54.7
23 | O=C(CCC(F)(F)F)N1CC=C(c2cccn3nc(Nc4ccc(C(=O)N(Cc5ccccn5)C5CC5)cc4)nc23)CC1 [Example 2-272, N-cyclopropyl-N-(2-pyridylmethyl)-4-[[8-[1-(4,4,4-trifluorobutanoyl)-3,6-dihydro-2H-pyridin-4-yl]-[1,2,4]triazolo[1,5-a]pyridin-2-yl]amino]benzamide] | 3.9 | 106
24 | Cc1ccc(CNC(=O)c2ccc(Nc3nc4c(C5=CCN(C(=O)CCC(F)(F)F)CC5)cccn4n3)cc2)cn1 [Example 2-148, N-[(6-methyl-3-pyridyl)methyl]-4-[[8-[1-(4,4,4-trifluorobutanoyl)-3,6-dihydro-2H-pyridin-4-yl]-[1,2,4]triazolo[1,5-a]pyridin-2-yl]amino]benzamide] | 3.2 | 15

Reference: patent US9873709B2 (priority 2013, dated 2018)
